Test results: publication PMC10746543, “Design principles for cyclin K molecular glue degraders” (Nature Chemical Biology, 2023)
Several values for one entry are separate records, joined by “and”; a condition that tells them apart may be missing. Identical values can stand only once.

What was measured:
HEK293T cells = assay: Drug sensitivity assay (CellTiter-Glo viability) with or without MLN4924 pretreatment; type: cell-based, human; conditions: Supplementary Table 2
Summary of the method: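 Cas9-expressing HEK293T cells receive either vehicle or 100 nM MLN4924, then compounds 2 h afterwards. After three days, luminescence-based viability is measured and calculated relative to DMSO.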

CDK12–cyclin K = CDK12–cyclin K (Homo sapiens, UniProt Q9NYV4); assay: Lanthascreen kinase binding assay, CDK12; conditions: duplicates
Method: Lanthascreen experiments were performed using commercially available reagents (Thermo Fisher) and according to the manufacturer’s instructions.

cyclin K = assay: Label-free quantitative mass spectrometry in MDA-MB-231 cells, cyclin K; type: cell-based, human
Summary of the method: (§1)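 MDA-MB-231 cells treated 5 h with 1 µM cyclin K degrader or DMSO. Lysates digested with LysC and trypsin, then analysed by label-free diaPASEF LC-MS on a TimsTOF Pro2 with directDIA search and MS1 precursor quantification. Protein abundances scaled and analysed with limma.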

CDK12 = target: T1, CDK12 (Homo sapiens, UniProt Q16531+Q9NYV4); assay: Label-free quantitative mass spectrometry in MDA-MB-231 cells, CDK12; type: cell-based
T1 construct: endogenous in cells; host or cells: MDA-MB-231
Summary of the method: as §1

CDK13 = target: T2, CDK13 (Homo sapiens, UniProt Q14004+Q16531); assay: Label-free quantitative mass spectrometry in MDA-MB-231 cells, CDK13; type: cell-based
T2 construct: endogenous in cells; host or cells: MDA-MB-231
Summary of the method: as §1

[1] = label-free quantitative MS, replicate values
[2] = normalised to DMSO = 1, replicate values

CDK12–cyclin K, sequence (Q9NYV4 713-1052): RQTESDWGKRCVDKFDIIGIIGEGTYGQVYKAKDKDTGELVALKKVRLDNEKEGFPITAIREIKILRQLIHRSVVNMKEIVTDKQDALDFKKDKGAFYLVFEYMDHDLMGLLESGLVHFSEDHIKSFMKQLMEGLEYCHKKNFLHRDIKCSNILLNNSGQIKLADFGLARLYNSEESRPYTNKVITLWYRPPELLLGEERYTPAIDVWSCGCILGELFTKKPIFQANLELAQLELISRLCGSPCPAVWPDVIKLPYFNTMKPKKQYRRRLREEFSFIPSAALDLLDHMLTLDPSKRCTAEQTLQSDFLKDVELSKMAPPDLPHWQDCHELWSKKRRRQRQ
CDK12–cyclin K, sequence (O75909 1-267 partner limits assumed): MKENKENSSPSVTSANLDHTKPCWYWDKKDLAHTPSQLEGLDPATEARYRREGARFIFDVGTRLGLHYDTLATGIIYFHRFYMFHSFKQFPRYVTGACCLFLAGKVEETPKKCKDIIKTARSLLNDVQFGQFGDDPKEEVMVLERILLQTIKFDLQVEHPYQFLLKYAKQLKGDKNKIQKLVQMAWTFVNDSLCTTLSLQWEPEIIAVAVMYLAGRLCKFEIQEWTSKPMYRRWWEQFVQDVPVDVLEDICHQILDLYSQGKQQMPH
T1 sequence (Q9NYV4 whole entry): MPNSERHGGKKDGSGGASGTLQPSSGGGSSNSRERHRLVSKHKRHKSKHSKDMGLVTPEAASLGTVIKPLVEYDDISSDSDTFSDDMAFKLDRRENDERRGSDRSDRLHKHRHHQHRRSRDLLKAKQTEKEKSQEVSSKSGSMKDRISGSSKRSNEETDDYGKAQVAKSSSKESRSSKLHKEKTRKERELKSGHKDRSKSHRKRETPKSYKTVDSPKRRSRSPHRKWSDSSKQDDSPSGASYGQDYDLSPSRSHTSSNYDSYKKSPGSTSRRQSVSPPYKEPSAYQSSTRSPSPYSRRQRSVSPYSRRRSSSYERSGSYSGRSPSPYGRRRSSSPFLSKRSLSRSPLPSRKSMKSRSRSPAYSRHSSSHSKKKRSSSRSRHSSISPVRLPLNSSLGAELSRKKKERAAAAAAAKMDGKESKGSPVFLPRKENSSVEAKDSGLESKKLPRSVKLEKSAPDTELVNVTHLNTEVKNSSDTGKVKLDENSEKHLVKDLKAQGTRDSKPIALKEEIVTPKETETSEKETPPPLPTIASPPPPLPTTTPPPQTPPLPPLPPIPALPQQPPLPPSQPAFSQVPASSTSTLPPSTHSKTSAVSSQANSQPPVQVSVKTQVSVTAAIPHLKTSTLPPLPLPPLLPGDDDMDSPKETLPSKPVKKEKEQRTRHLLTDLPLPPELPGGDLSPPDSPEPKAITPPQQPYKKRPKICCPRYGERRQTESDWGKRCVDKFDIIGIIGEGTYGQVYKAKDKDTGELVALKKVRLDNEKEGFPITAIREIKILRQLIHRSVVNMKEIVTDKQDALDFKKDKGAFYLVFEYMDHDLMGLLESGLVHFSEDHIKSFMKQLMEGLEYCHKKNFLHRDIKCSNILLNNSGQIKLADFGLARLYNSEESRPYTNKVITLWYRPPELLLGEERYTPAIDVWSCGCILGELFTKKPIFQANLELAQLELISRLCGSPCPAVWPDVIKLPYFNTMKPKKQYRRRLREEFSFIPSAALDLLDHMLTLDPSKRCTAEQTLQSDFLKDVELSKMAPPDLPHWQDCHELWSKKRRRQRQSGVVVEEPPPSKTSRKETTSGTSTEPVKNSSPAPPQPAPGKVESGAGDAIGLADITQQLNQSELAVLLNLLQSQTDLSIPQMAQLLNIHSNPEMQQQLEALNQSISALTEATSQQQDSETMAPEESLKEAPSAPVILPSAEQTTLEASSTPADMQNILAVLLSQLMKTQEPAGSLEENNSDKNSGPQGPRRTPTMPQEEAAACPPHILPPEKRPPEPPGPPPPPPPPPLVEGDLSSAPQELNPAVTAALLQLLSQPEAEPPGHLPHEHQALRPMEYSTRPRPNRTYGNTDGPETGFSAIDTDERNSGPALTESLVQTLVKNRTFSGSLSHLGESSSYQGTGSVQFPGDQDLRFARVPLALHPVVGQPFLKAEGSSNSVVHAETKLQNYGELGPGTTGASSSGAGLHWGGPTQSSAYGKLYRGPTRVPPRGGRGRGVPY
T1 sequence (O75909 whole entry partner): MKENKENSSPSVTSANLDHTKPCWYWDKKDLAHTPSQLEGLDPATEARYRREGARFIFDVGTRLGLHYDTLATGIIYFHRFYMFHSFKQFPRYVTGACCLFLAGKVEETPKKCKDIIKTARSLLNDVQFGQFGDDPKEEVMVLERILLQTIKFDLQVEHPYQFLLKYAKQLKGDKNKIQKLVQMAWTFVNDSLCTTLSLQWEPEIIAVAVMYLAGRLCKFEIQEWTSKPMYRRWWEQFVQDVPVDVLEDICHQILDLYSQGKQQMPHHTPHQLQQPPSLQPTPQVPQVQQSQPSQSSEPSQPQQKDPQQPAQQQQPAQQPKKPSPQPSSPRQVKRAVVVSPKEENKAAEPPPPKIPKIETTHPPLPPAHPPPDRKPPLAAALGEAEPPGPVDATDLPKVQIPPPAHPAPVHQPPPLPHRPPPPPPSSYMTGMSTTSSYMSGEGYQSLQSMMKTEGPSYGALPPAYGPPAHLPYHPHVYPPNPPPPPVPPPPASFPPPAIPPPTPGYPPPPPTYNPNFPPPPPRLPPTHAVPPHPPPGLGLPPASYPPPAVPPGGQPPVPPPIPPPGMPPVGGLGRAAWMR
T1 sequence (Q16531 2-1140 limits assumed): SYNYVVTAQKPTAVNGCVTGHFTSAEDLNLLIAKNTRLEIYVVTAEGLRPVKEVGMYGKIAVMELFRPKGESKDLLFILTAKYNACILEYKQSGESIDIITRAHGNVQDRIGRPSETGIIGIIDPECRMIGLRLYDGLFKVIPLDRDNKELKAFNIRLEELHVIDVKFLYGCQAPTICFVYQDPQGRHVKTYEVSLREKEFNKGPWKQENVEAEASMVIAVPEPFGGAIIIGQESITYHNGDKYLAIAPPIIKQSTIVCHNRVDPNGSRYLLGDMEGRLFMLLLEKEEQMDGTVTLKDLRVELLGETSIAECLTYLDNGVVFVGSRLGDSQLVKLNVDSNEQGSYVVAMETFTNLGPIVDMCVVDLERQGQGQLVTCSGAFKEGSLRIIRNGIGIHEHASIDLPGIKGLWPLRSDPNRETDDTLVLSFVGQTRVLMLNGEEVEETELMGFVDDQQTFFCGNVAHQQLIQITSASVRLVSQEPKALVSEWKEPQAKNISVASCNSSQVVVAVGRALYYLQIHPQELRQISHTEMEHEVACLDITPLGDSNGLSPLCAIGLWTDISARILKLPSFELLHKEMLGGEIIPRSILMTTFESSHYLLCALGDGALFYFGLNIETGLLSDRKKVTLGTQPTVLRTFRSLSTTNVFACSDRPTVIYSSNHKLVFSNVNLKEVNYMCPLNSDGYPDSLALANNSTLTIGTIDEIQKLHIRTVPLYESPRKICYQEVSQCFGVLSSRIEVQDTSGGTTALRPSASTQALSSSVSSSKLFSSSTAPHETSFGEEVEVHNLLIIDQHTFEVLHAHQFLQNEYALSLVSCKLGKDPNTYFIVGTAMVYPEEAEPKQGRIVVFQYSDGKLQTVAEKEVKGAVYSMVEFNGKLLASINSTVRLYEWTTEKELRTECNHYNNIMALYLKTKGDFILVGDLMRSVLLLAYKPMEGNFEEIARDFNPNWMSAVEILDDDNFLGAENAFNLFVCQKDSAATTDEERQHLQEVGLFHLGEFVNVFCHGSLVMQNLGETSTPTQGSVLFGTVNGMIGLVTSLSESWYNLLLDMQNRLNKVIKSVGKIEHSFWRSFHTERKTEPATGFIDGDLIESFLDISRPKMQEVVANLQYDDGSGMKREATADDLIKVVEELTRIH

Q: With `Cn1cc(-n2cnc3c(NCc4nc5cc(Cl)c(Cl)cc5[nH]4)nc(N4CCOCC4)nc32)cn1` [SR-4835] as the compound, how does the EC50 (HEK293T cells; Homo sapiens, HEK-293T, HEK293T viability, 72 h, compound alone, read-out: Cellular assays EC50) read?
A: 42 nM

Q: And the Toxicity rescue (HEK293T cells; MLN4924-mediated cytotoxicity rescue, 10 µM used where n.d.)?
A: 645%

Q: And the “Lanthascreen raw signal, sheet CDK12” value (CDK12–cyclin K; compound 0.038147 nM, series r13)?
A: 0.01046 and 0.009983

Q: What about the “Lanthascreen raw signal, sheet CDK12” value (CDK12–cyclin K; compound 0.038147 nM, series r37) of the same compound?
A: 0.01351 and 0.01182

Q: What about the “Lanthascreen raw signal, sheet CDK12” value (CDK12–cyclin K; compound 0.038147 nM, series r49) of the same compound?
A: 0.007647 and 0.00729

Q: And the “Lanthascreen raw signal, sheet CDK12” value (CDK12–cyclin K; compound 0.152588 nM, series r13)?
A: 0.009614 and 0.01041

Q: What about the “Lanthascreen raw signal, sheet CDK12” value (CDK12–cyclin K; compound 0.152588 nM, series r37) of the same compound?
A: 0.01248 and 0.01201

Q: What about the “Lanthascreen raw signal, sheet CDK12” value (CDK12–cyclin K; compound 0.152588 nM, series r49) of the same compound?
A: 0.009969 and 0.01054

Q: And the “Lanthascreen raw signal, sheet CDK12” value (CDK12–cyclin K; compound 0.610352 nM, series r13)?
A: 0.01066 and 0.01021

Q: What about the “Lanthascreen raw signal, sheet CDK12” value (CDK12–cyclin K; compound 0.610352 nM, series r37) of the same compound?
A: 0.01219 and 0.01189

Q: And the “Lanthascreen raw signal, sheet CDK12” value (CDK12–cyclin K; compound 0.610352 nM, series r49)?
A: 0.01058 and 0.01056

Q: And the “Lanthascreen raw signal, sheet CDK12” value (CDK12–cyclin K; compound 1.02544 nM, series r1)?
A: 0.008952 and 0.009485

Q: What about the “Lanthascreen raw signal, sheet CDK12” value (CDK12–cyclin K; compound 3.15521 nM, series r1) of the same compound?
A: 0.008128 and 0.008332

Q: And the “Lanthascreen raw signal, sheet CDK12” value (CDK12–cyclin K; compound 9.46563 nM, series r1)?
A: 0.008981 and 0.006574

Q: And the “Lanthascreen raw signal, sheet CDK12” value (CDK12–cyclin K; compound 9.76563 nM, series r13)?
A: 0.009284 and 0.009045

Q: What about the “Lanthascreen raw signal, sheet CDK12” value (CDK12–cyclin K; compound 9.76563 nM, series r37) of the same compound?
A: 0.009426 and 0.01016

Q: And the “Lanthascreen raw signal, sheet CDK12” value (CDK12–cyclin K; compound 9.76563 nM, series r49)?
A: 0.009267 and 0.008766

Q: And the “Lanthascreen raw signal, sheet CDK12” value (CDK12–cyclin K; compound 31.5521 nM, series r1)?
A: 0.007535 and 0.008876

Q: And the “Lanthascreen raw signal, sheet CDK12” value (CDK12–cyclin K; compound 39.0625 nM, series r13)?
A: 0.008439 and 0.008567

Q: And the “Lanthascreen raw signal, sheet CDK12” value (CDK12–cyclin K; compound 39.0625 nM, series r37)?
A: 0.009028 and 0.008999

Q: What about the “Lanthascreen raw signal, sheet CDK12” value (CDK12–cyclin K; compound 39.0625 nM, series r49) of the same compound?
A: 0.00795 and 0.007253

Q: What about the “Lanthascreen raw signal, sheet CDK12” value (CDK12–cyclin K; compound 99.3891 nM, series r1) of the same compound?
A: 0.006758 and 0.007046

Q: What about the “Lanthascreen raw signal, sheet CDK12” value (CDK12–cyclin K; compound 156.25 nM, series r13) of the same compound?
A: 0.008038 and 0.008664

Q: What about the “Lanthascreen raw signal, sheet CDK12” value (CDK12–cyclin K; compound 156.25 nM, series r37) of the same compound?
A: 0.006404 and 0.007018

Q: What about the “Lanthascreen raw signal, sheet CDK12” value (CDK12–cyclin K; compound 156.25 nM, series r49) of the same compound?
A: 0.006482 and 0.006079

Q: And the “Lanthascreen raw signal, sheet CDK12” value (CDK12–cyclin K; compound 315.521 nM, series r1)?
A: 0.006236 and 0.005797

Q: And the “Lanthascreen raw signal, sheet CDK12” value (CDK12–cyclin K; compound 625 nM, series r13)?
A: 0.008328 and 0.007759

Q: What about the “Lanthascreen raw signal, sheet CDK12” value (CDK12–cyclin K; compound 625 nM, series r37) of the same compound?
A: 0.006628 and 0.006561

Q: And the “Lanthascreen raw signal, sheet CDK12” value (CDK12–cyclin K; compound 625 nM, series r49)?
A: 0.005855 and 0.00595

Q: And the “Lanthascreen raw signal, sheet CDK12” value (CDK12–cyclin K; compound 2500 nM, series r13)?
A: 0.007658 and 0.007398

Q: And the “Lanthascreen raw signal, sheet CDK12” value (CDK12–cyclin K; compound 2500 nM, series r37)?
A: 0.006178 and 0.006049

Q: What about the “Lanthascreen raw signal, sheet CDK12” value (CDK12–cyclin K; compound 2500 nM, series r49) of the same compound?
A: 0.005776 and 0.005723

Q: And the “Lanthascreen raw signal, sheet CDK12” value (CDK12–cyclin K; compound 3155.21 nM, series r1)?
A: 0.006081 and 0.005159

Q: And the “Lanthascreen raw signal, sheet CDK12” value (CDK12–cyclin K; compound 10000 nM, series r13)?
A: 0.007533 and 0.00783

Q: What about the “Lanthascreen raw signal, sheet CDK12” value (CDK12–cyclin K; compound 10000 nM, series r37) of the same compound?
A: 0.005313 and 0.005643

Q: What about the “Lanthascreen raw signal, sheet CDK12” value (CDK12–cyclin K; compound 10000 nM, series r49) of the same compound?
A: 0.005957 and 0.005417

Q: And the “Lanthascreen raw signal, sheet CDK12” value (CDK12–cyclin K; compound 10002 nM, series r1)?
A: 0.004606 and 0.00667

Q: And the “cyclin K depletion, result in words” value (cyclin K; MDA-MB-231 cells, 1 µM, 5 h)?
A: more effective at depleting cyclin K than CR8

Q: What about the “cyclin K abundance (label-free MS)” value (cyclin K; individual replicates, sheet EDF7) of the same compound?
A: 69.2958 and 61.7731

Q: What about the “cyclin K abundance (label-free MS)” value (cyclin K; [1]) of the same compound?
A: 69.2958 and 61.7731

Q: And the “CCNK peptide count (DMSO-normalised)” value (cyclin K; [2])?
A: 0.03786 and 0.03436

Q: What about the “average CCNK peptide count” value (cyclin K; sheet EDF7) of the same compound?
A: 65.5345

Q: And the CDK12 peptide count (CDK12; [1])?
A: 613.534 and 654.471

Q: What about the “CDK12 peptide count (DMSO-normalised)” value (CDK12; [2]) of the same compound?
A: 0.6817 and 0.676

Q: And the CDK13 peptide count (CDK13; [1])?
A: 281.229 and 215.265

Q: What about the “CDK13 peptide count (DMSO-normalised)” value (CDK13; [2]) of the same compound?
A: 0.4184 and 0.3308
